Source: patent US20140357706A1, “Stearate Compounds” (THE UAB RESEARCH FOUNDATION, priority 2011, published 2014)

Assays:
[1] = test system: MDA-MB-435 human breast cancer cells; assay: MDA-MB-435 lung metastasis model, experiment 2 (diet started with chemotherapy after surgery); type: in vivo, mice
Description: 3-4 week old female athymic mice were purchased from Harlan Sprague Dawley, Inc. (Indianapolis, Ind.) and were maintained in microisolater cages in pathogen-free facilities. […] The diets were prepared by Harlan-Teklad (Madison, Wis.). The animals were fed ad libitum and the amount of food consumed was recorded. Mice were anesthetized with 3% isoflurane in 2.5% O2 and weighed weekly. All in vivo procedures were approved by the Institutional Animal Care and Use Committee (IACUC), University of Alabama at Birmingham (UAB).
MDA-MB-435 human breast cancer cells (obtained from Dr. Dan Welch; UAB) were grown and maintained in DMEM:F12 supplemented with 5% FBS, 2 mM glutamine, 1 mM sodium pyruvate, 0.2× non-essential amino acids and 1% penicillin/streptomycin (5% CO2). Cells were grown to 80-90% confluence prior to preparation for injection. To detach cells from the plates, cells were washed with PBS and then treated with 3 mM versene. […]
Lungs were placed under the dissecting microscope (Fisher Scientific, Hanover Park, Ill.) for measurement of metastatic tumor size. Tumor size is expressed as an average of the longest and shortest diameter. The tumors were split into three groups according to their sizes (<0.1 cm, small tumor; 0.1-0.2 cm, medium tumor; >0.2 cm, large tumor), and the number of tumors per mouse was counted separately.

[2] = test system: lung metastatic tumors; assay: Immunohistochemistry of lung metastatic tumors (CD31, Ki67, caspase-3), experiment 2; type: in vivo, mice
Description: Paraffin sections were prepared as described previously (21). 5 μm thick sections were cut from the formalin fixed, paraffin embedded tissue blocks and floated onto charged glass slides (Super-Frost Plus, Fisher Scientific, Pittsburgh, Pa.) and dried overnight at 60° C. A hemotoxylin and eosin stained section was obtained from each tissue block. All sections for immunohistochemistry were deparaffinized and hydrated using graded concentrations of ethanol to deionized water.
CD31 immunostaining was done as described previously^(21). Briefly, the tissue sections were subjected to pretreatment with 0.5 M tris buffer (pH 10). All sections were washed gently in deionized water, then transferred in to 0.05 M Tris-based solution in 0.15 M NaCl with 0.1% v/v Triton-X-100, pH 7.6 (TBST). Endogenous peroxidase was blocked with 3% hydrogen peroxide for 10 min. To reduce further nonspecific background staining, slides were incubated with avidin (Jackson ImmunoResearch, West Grove, Pa.) and biotin blocking solutions (Sigma, to St. Louis, Mo.) for 15 min each, and 3% normal goat serum (Sigma, St. Louis, Mo.) for 20 min. All slides were then incubated at 4° C. overnight with rabbit polyclonal antibody against CD31 (1:200 dilution) (Abeam, Cambridge, Mass.). […]
Bioquant® Image Analysis software (Rtm Biometrics, Nashville, Tenn.) was used to evaluate the immunostaining. […] The numbers of positive and negative cells in these hot spots were then counted and averaged at 5 magnification X40. The percentage of cells stained with Ki67 or caspase-3 was subsequently calculated for comparison. For CD31 immunostaining, the MVD was measured based on Weidner's method (37). […] The number of microvessels in these hot spots was counted at magnification X40, and the density was then calculated for comparison. Each positive endothelial cell cluster of immunoreactivity was counted as an individual vessel in addition to the morphologically identifiable vessels with a lumen.

CC(=O)O[C@H]1C(=O)[C@@]2(C)[C@H]([C@H](OC(=O)c3ccccc3)[C@]3(O)C[C@H](OC(=O)[C@H](O)[C@@H](NC(=O)c4ccccc4)c4ccccc4)C(C)=C1C3(C)C)[C@]1(OC(C)=O)CO[C@@H]1C[C@@H]2O [paclitaxel]
Incidence of lung metastases ([1]; PTX vs same diet without PTX, p<0.01, about 20 mg/kg i.p.): significantly lower
Number of lung metastases ([1]; two-way ANOVA, PTX VS. no PTX, diet VS. control diet): significantly reduced
Caspase-3 positive cells ([2]; compared to control diet group): significantly increased
Percentage of Ki67 positive cells (proliferation) ([2]; two-way ANOVA): significantly inhibited
Microvessel density (MVD), CD31 ([2]; two-way ANOVA, PTX VS. no PTX, diet VS. control diet group): decreased the MVD significantly
